According to US8445522B2, “Substituted 2-(4-pyridyl)benzoxazoles, and compositions thereof, for use in arthropod pest control” (Sumitomo Chemical Company, Limited, priority 2009, dated 2013):
Where two headings read alike, the source gives them in different places.

Tests used:
Assay type in all cases: in vivo
cotton aphids [1] = experiment: Test Example 3: plant foot irrigation of cucumber seedling in plastic cup, cotton aphids inoculated after seven days; conditions: 144 h, read-out: Control value
Procedure: (§1) The formulations were diluted with water so that the concentration of the active ingredient became 500 ppm and thus test diluents were prepared. On the other hand, a plant foot of cucumber seedling (second true leaf development stage) planted in a plastic cup was irrigated with any one of diluents (5 ml). The seedling was kept in a green house of 25° C. for seven days. The cucumber leaves were inoculated with 30 cotton aphids (all stages) and kept in the green house for further six days. Thereafter, the number of survived cotton aphids parasitic on the cucumber leaves was counted, and the control value was calculated by the following equation. Control value(%)={1−(Cb×Tai)/(Cai×Tb)}×100 wherein each character represents the following meaning: Cb: number of insects in non-treated section before treatment Cai: number of insects in non-treated section during observation Tb: number of insects in treated section before treatment Tai: number of insects in treated section during observation

halymorpha halys = experiment: Test Example 7: treated tissue paper with budding soybeans, halymorpha halys mortality; conditions: 168 h
Procedure: Formulations were prepared by the method described in Formulation Example 1 with respect to each of the active compound 13, the active compound 15, the active compound 18, the active compound 35, the active compound 37, the active compound 44, the active compound 65, the active compound 68 and the active compound 82. The formulations were diluted with water so that the concentration of the active ingredient became 100 ppm and thus test diluents were prepared.
On the other hand, a tissue paper placed in an aluminum cup was irrigated with any one of the above-mentioned diluents (5 ml). The tissue paper was placed in a polyethylene cup together with three budding soybeans. In the polyethylene cup, ten halymorpha halys were released, and the polyethylene cup was lidded by a polyethylene lid. Seven days after the releasing of the insects, the number of survived insects was counted, and the mortality was calculated by the following equation. Mortality(%)=(number of dead insects/number of insects to be tested)×100

cotton aphids [2] = experiment: Test Example 2: plant foot irrigation of cucumber seedling in urethane mat, cotton aphids inoculated one day after treatment; conditions: 168 h, read-out: Control value
Procedure: as §1, with “urethane mat” for “plastic cup”, “One day after the treatment, the” for “The seedling was kept in a green house of 25° C. for seven days. The”, “stages). Further seven days after,” for “stages) and kept in the green house for further six days. Thereafter,”

rice brown planthopper [3] = experiment: Test Example 6: plant foot irrigation of rice plant seedling, rice brown planthopper released after seven days; conditions: Nilaparvata lugens, 144 h, read-out: Control value
Procedure: The formulations were diluted with water so that the concentration of the active ingredient became 500 ppm and thus test diluents were prepared. On the other hand, a plant foot of rice plant seedling (two weeks after seeding, second leaf development stage) planted in a plastic cup was irrigated with any one of diluents (5 ml). The seedling was kept in a green house of 25° C. for seven days. Thirty first-instars of rice brown planthopper were released to the seedling, which was kept in the green house at 25 C for six days. Thereafter, the number of survived rice brown planthopper parasitic on rice plant leaves was counted, and the control value was calculated by the following equation. Control value(%)={1−(Cb×Tai)/(Cai×Tb)}×100 wherein each character represents the following meaning: Cb: number of insects in non-treated section before treatment Cai: number of insects in non-treated section during observation Tb: number of insects in treated section before treatment Tai: number of insects in treated section during observation

[4] = system: cotton aphids (Aphis gossypii Glover); experiment: Test Example 1: test diluent scattered on cucumber seedling inoculated with cotton aphids; conditions: 120 h, read-out: Control value
Procedure: The formulations were diluted with water so that the concentration of the active ingredient became 500 ppm and thus test diluents were prepared. On the other hand, a cucumber seedling (second true leaf development stage) planted in a plastic cup was inoculated with about 30 cotton aphids (Aphis gossypii Glover) and allowed to stand for one day. To the seedling, any one of the diluents (10 ml) was scattered. Five days after the scattering, the number of survived cotton aphids parasitic on the cucumber leaves was counted, and the control value was calculated by the following equation. Control value(%)={1−(Cb×Tai)/(Cai×Tb)}×100 wherein each character represents the following meaning: Cb: the number of insects in non-treated section before treatment Cai: the number of insects in non-treated section during observation Tb: the number of insects in treated section before treatment Tai: the number of insects in treated section during observation

tobacco whitefly = experiment: Test Example 4: test diluent scattered on tomato seedling with hatched tobacco whitefly larvae; conditions: 168 h, read-out: Control value
Procedure: The formulations were diluted with water so that the concentration of the active ingredient became 500 ppm and thus test diluents were prepared. On the other hand, by releasing tobacco whitefly imagos to a tomato seedling planted in a plastic cup to allow them to lay eggs for about 24 hours. The tomato seedling was kept in a green house for eight days. At the stage in which larvae hatched from the laid eggs, any of the test diluents was scattered at the rate of 10 ml/cup. The tomato seedling was kept in the greenhouse at 25° C. for seven days. The number of survived larvae on tomato leaves was counted, and the control value was calculated by the following equation. Control value(%)={1−(Cb×Tai)/(Cai×Tb)}×100 wherein each character represents the following meaning: Cb: number of insects in non-treated section before treatment Cai: number of insects in non-treated section during observation Tb: number of insects in treated section before treatment Tai: number of insects in treated section during observation

rice brown planthopper [5] = experiment: Test Example 5: test diluent scattered on rice plant seedling, rice brown planthopper released; conditions: Nilaparvata lugens, 144 h, read-out: Control value
Procedure: The formulations were diluted with water so that the concentration of the active ingredient became 500 ppm and thus test diluents were prepared. On the other hand, to a rice plant seedling (two weeks after seeding, second leaf development stage) planted in a plastic cup, any one of the diluents (10 ml) was scattered. After the drug solution scattered on the rice plant was dried, 30 first-instars of rice brown planthopper were released on the rice plant, which was kept in the green house at 25° C. for six days. Thereafter, the number of rice brown planthopper parasitic on rice plant was counted and the control value was calculated by the following equation. Control value(%)={1−(Cb×Tai)/(Cai×Tb)}×100 wherein each character represents the following meaning: Cb: number of insects in non-treated section before treatment Cai: number of insects in non-treated section during observation Tb: number of insects in treated section before treatment Tai: number of insects in treated section during observation

cotton aphids [6] = experiment: Test Example 8 and Comparative Test Example: 200 ppm diluent scattered on cucumber seedling inoculated with cotton aphids; conditions: 200 ppm active ingredient, 10 ml scattered on cucumber seedling, counted five days after scattering
[7] = 500 ppm, 5 ml plant foot irrigation, urethane mat, aphids inoculated one day after treatment, counted seven days after
[8] = 500 ppm, 5 ml plant foot irrigation, plastic cup, aphids inoculated after seven days at 25° C., counted six days after
[9] = 500 ppm, 5 ml plant foot irrigation of rice seedling, first-instars released after seven days, counted six days after
[10] = 100 ppm, 5 ml on tissue paper with budding soybeans, ten insects, counted seven days after releasing, read-out: Mortality
[11] = 500 ppm, 10 ml scattered on rice plant seedling, 30 first-instars released, counted after six days at 25° C.
[12] = 500 ppm, 10 ml/cup scattered on tomato seedling at larvae stage, counted after seven days at 25° C.

FC(F)(F)c1ccc2oc(-c3ccncc3)nc2c1 [active compound 13, 2-(pyridin-4-yl)-5-(trifluoromethyl)benzoxazole]
pest or weed control at 500 ppm (cotton aphids [1]): ≥ 90% | mortality at 100 ppm (halymorpha halys): ≥ 80%

[O-][n+]1ccc(-c2nc3cc(C(F)(F)F)ccc3o2)cc1 [active compound 14, 4-[5-(trifluoromethyl)benzoxazole-2-yl]pyridine N-oxide]
pest or weed control at 500 ppm (cotton aphids [2]; [7]): ≥ 90% | pest or weed control at 500 ppm (cotton aphids [1]; [8]): ≥ 90% | pest or weed control at 500 ppm (rice brown planthopper [3]; [9]): ≥ 90%

FC(F)(F)c1ccc2nc(-c3ccncc3)oc2c1 [active compound 15, 2-(pyridin-4-yl)-6-(trifluoromethyl)benzoxazole]
mortality at 100 ppm (halymorpha halys; [10]): ≥ 80%

FC(F)(F)c1ccc2oc(-c3ccncc3Cl)nc2c1 [active compound 18, 2-(3-chloropyridin-4-yl)-5-(trifluoromethyl)benzoxazole]
pest or weed control at 500 ppm (cotton aphids [2]): ≥ 90% | pest or weed control at 500 ppm (rice brown planthopper [3]): ≥ 90% | mortality at 100 ppm (halymorpha halys): ≥ 80%

[O-][n+]1ccc(-c2nc3cc(C(F)(F)F)ccc3o2)c(I)c1 [active compound 30, 3-iode-4-[5-(trifluoromethyl)benzoxazole-2-yl]pyridine N-oxide]
pest or weed control at 500 ppm (cotton aphids [2]; [7]): ≥ 90% | pest or weed control at 500 ppm (cotton aphids [1]; [8]): ≥ 90% | pest or weed control at 500 ppm (rice brown planthopper [3]; [9]): ≥ 90%

CCc1cnccc1-c1nc2cc(C(F)(F)F)ccc2o1 [active compound 35, 2-(3-ethylpyridin-4-yl)-5-(trifluoromethyl)benzoxazole]
pest or weed control at 500 ppm [4]: ≥ 90% | pest or weed control at 500 ppm (cotton aphids [2]): ≥ 90% | pest or weed control at 500 ppm (tobacco whitefly): ≥ 90% | pest or weed control at 500 ppm (rice brown planthopper [5]): ≥ 90% | pest or weed control at 500 ppm (rice brown planthopper [3]): ≥ 90% | mortality at 100 ppm (halymorpha halys): ≥ 80%

COc1cnccc1-c1nc2cc(C(F)(F)F)ccc2o1 [active compound 37, 2-(3-methoxypyridin-4-yl)-5-(trifluoromethyl)benzoxazole]
pest or weed control at 500 ppm [4]: ≥ 90% | pest or weed control at 500 ppm (cotton aphids [2]): ≥ 90% | pest or weed control at 500 ppm (cotton aphids [1]): ≥ 90% | pest or weed control at 500 ppm (tobacco whitefly): ≥ 90% | pest or weed control at 500 ppm (rice brown planthopper [3]): ≥ 90% | mortality at 100 ppm (halymorpha halys): ≥ 80%

CC(C)(C)Sc1cnccc1-c1nc2cc(C(F)(F)F)ccc2o1 [active compound 44, 2-(3-tert-butylthiopyridin-4-yl)-5-(trifluoromethyl)benzoxazole]
pest or weed control at 500 ppm (rice brown planthopper [3]): ≥ 90% | mortality at 100 ppm (halymorpha halys): ≥ 80%

FC(F)(F)c1ccc2oc(-c3ccncc3-n3cccn3)nc2c1 [active compound 58, 2-[3-(pyrazole-1-yl)pyridin-4-yl]-5-(trifluoromethyl)benzoxazole]
pest or weed control at 500 ppm (cotton aphids [2]; [7]): ≥ 90% | pest or weed control at 500 ppm (cotton aphids [1]; [8]): ≥ 90% | pest or weed control at 500 ppm (rice brown planthopper [5]; [11]): ≥ 90% | pest or weed control at 500 ppm (rice brown planthopper [3]; [9]): ≥ 90%

FC(F)(F)c1ccc2oc(-c3ccncc3-n3cncn3)nc2c1 [active compound 63, 2-[3-(1,2,4-triazole-1-yl)pyridin-4-yl]-5-(trifluoromethyl)benzoxazole]
pest or weed control at 500 ppm (cotton aphids [2]; [7]): ≥ 90% | pest or weed control at 500 ppm (cotton aphids [1]; [8]): ≥ 90% | pest or weed control at 500 ppm (tobacco whitefly; [12]): ≥ 90%

FC(F)(F)C(F)(F)c1ccc2oc(-c3ccncc3)nc2c1 [active compound 65, 5-(pentafluoroethyl)-2-(pyridin-4-yl)-benzoxazole]
mortality at 100 ppm (halymorpha halys; [10]): ≥ 80%

FC(F)(F)C(F)(c1ccc2oc(-c3ccncc3Cl)nc2c1)C(F)(F)F [active compound 68, 2-(3-chloropyridin-4-yl)-5-(heptafluoroisopropyl)benzoxazole]
pest or weed control at 500 ppm (rice brown planthopper [5]; [11]): ≥ 90% | mortality at 100 ppm (halymorpha halys; [10]): ≥ 80%

CC(=O)Nc1cnccc1-c1nc2cc(C(F)(F)F)ccc2o1 [active compound 82, N-[4-(5-trifluoromethylbenzoxazole-2-yl)pyridin-3-yl]acetamide]
mortality at 100 ppm (halymorpha halys; [10]): ≥ 80%

FC(F)(F)c1ccc2oc(-c3ccncc3C(F)(F)F)nc2c1 [active compound 125, 5-trifluoromethyl-2-[3-(trifluoromethyl)pyridin-4-yl]-benzoxazole]
pest or weed control at 500 ppm ([4]; 500 ppm active ingredient, 10 ml scattered on cucumber seedling, counted five days after scattering): ≥ 90% | pest or weed control at 500 ppm (cotton aphids [2]; [7]): ≥ 90% | pest or weed control at 500 ppm (cotton aphids [1]; [8]): ≥ 90% | pest or weed control at 500 ppm (tobacco whitefly; [12]): ≥ 90% | pest or weed control at 500 ppm (rice brown planthopper [3]; [9]): ≥ 90%

c1ccc2oc(-c3ccncc3)nc2c1 [comparative compound (B)]
Control value (cotton aphids [6]): less than 30%
